# In article PMC3172300, “Modulation of Catalytic Activity in Multi-Domain Protein Tyrosine Phosphatases” (PLoS ONE, 2011):
# pKd: −log10 of the molar value. Where a name gives a salt, the structure may show the parent alone. Read-outs that look alike come from different tables or passages of the source.
# How the values were obtained:
# [1] = target: T1, PTP99A D1 (Drosophila melanogaster, UniProt P35832); test: PNC binding by fluorescence quenching, PTP99A D1; parameters: PTP99A 450-756; His tag (pET-15b or pET-22b); made in house; host or cells: E. coli BL21(DE3)
# T1 sequence (P35832 450-756): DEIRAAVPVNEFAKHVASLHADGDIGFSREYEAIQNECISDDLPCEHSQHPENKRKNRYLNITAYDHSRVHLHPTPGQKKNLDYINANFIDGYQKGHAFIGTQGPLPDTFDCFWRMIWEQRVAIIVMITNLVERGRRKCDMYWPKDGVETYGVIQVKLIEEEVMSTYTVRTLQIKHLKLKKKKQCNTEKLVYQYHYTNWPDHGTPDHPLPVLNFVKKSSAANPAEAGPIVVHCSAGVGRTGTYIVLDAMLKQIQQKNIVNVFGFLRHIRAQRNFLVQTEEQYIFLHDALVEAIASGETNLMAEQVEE
# Protocol: (§1) 5.0 µM of recombinant protein was titrated with increasing concentrations of PNC (Sigma-Aldrich) in 25 mM citrate buffer pH 6.5, 100 mM NaCl and 2 mM DTT. The closing of the WPD loop leads to the quenching of the intrinsic tryptophan fluorescence. Fluorescence quenching was monitored at 350 nm (emission maximum) for recombinant PTP domains and the dissociation constants were calculated by fitting the data to a hyperbolic equation of ligand binding using the nonlinear regression modules of Sigma Plot software (Systat Software Inc.).
# (§2) To evaluate the differences in the phosphotyrosine binding pockets of the two domains of DLAR and PTP99A, a small molecule probe para-Nitrocatecholsulfate (2-hydroxy-5-nitrophenyl sulfate; PNC) was used. PNC acts as a small molecule competitive inhibitor of the PTPs as it mimics the phosphotyrosine residue. PNC binding was evaluated by monitoring the fluorescence quenching of the tryptophan residues in the WPD loop. […] PNC binding to the DLAR D1D2 construct fitted well to the independent ligand binding model for two non-interacting sites.
# [2] = target: T2, DLAR D1D2 (Drosophila melanogaster, UniProt P16621); test: PNC binding by fluorescence quenching, DLAR D1D2; details: 5.0 µM protein, 25 mM citrate pH 6.5, fluorescence quenching 350 nm, independent two site model
# T2 construct: DLAR 1448-2029; His tag (pET-15b or pET-22b); made in house; host or cells: E. coli BL21(DE3)
# T2 sequence (P16621 1448-2029): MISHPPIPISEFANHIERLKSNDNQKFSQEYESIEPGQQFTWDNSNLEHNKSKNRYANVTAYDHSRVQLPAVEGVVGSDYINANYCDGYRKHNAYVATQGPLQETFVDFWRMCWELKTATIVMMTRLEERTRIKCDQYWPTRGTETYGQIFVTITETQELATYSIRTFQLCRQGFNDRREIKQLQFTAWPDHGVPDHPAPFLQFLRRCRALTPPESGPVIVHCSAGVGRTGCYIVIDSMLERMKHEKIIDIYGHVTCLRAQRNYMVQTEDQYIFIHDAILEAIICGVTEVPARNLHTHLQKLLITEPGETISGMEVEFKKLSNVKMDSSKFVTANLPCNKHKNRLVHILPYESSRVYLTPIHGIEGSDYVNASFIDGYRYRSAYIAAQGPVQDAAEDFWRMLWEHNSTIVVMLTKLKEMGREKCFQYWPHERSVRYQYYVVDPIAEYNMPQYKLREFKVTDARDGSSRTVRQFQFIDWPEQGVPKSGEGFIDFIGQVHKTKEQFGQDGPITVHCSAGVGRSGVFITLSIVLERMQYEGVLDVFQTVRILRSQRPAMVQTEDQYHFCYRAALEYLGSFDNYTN
# Protocol: as §1, §2
# [3] = target: T3, DLAR D2 (Drosophila melanogaster, UniProt P16621); test: PNC binding by fluorescence quenching, DLAR D2; details: 5.0 µM protein, 25 mM citrate pH 6.5; fluorescence quenching 350 nm; single site model
# T3 construct: DLAR 1728-2029; His tag (pET-15b or pET-22b); made in house; host or cells: E. coli BL21(DE3)
# T3 sequence (P16621 1728-2029): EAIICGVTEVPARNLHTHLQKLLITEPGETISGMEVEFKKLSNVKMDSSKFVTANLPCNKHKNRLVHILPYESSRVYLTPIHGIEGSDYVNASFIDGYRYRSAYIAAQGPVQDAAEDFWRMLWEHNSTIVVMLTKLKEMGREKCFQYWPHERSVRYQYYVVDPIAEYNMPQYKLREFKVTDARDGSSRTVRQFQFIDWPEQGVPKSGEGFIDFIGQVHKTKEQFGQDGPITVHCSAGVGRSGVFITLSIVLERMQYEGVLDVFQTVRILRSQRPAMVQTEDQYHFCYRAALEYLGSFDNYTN
# Protocol: as §1, §2
# [4] = target: T4, PTP99A D2 (Drosophila melanogaster, UniProt P35832); test: PNC binding by fluorescence quenching, PTP99A D2
# T4 sequence (P35832 740-1050): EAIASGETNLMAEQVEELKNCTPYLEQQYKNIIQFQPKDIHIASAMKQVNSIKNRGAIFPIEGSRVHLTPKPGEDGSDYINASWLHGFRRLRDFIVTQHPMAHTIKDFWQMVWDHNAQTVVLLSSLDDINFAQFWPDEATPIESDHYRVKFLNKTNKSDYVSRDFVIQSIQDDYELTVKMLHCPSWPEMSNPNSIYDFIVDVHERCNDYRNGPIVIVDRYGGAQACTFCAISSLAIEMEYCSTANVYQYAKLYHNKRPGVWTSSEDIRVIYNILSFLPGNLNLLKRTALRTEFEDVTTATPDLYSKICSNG
# Protocol: as §1, §2
# [5] = target: T5, DLAR D1 (Drosophila melanogaster, UniProt P16621); test: PNC binding by fluorescence quenching, DLAR D1
# T5 construct: DLAR 1448-1746; His tag (pET-15b or pET-22b); made in house; host or cells: E. coli BL21(DE3)
# T5 sequence (P16621 1448-1746): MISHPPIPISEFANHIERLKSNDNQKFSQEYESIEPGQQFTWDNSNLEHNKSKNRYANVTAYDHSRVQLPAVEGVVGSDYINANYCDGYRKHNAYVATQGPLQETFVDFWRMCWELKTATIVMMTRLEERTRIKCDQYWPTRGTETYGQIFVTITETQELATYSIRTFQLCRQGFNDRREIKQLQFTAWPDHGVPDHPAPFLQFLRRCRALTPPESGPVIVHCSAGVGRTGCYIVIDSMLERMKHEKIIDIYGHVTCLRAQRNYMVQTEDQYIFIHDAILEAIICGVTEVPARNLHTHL
# Protocol: as §1, §2
# [6] = target: T6, PTP99A D1D2 (Drosophila melanogaster, UniProt P35832); test: PNC binding by fluorescence quenching, PTP99A D1D2; details: 5.0 µM protein, 25 mM citrate pH 6.5; fluorescence quenching 350 nm; independent two site model; read-out: Kd1
# T6 sequence (P35832 450-1050): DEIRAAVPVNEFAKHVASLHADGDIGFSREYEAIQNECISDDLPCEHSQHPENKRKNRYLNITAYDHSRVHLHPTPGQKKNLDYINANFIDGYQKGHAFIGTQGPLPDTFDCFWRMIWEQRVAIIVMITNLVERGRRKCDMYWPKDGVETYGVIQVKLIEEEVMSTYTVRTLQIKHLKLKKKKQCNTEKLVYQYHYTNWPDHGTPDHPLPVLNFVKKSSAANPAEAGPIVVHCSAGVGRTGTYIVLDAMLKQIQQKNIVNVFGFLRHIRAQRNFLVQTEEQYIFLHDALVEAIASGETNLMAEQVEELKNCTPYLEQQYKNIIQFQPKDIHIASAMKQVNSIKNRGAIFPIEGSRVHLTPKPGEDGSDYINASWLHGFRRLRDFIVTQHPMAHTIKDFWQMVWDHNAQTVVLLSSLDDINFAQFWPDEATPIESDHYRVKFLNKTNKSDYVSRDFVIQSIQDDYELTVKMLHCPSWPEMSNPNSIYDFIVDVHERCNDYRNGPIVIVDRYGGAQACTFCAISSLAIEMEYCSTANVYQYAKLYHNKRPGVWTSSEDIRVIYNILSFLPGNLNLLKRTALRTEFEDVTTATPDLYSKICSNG
# Protocol: as §1, §2
# [7] = 5.0 µM protein, 25 mM citrate pH 6.5, fluorescence quenching 350 nm, single site model
structure (smiles),measurement,setting,value
"O=[N+]([O-])c1ccc(O)c(OS(=O)(=O)O)c1 [PNC, 2-hydroxy-5-nitrophenyl sulfate]",pKd,[1]; [7],3.81
same,relative PNC binding,"[1]; D1 domain of PTP99A alone, fluorescence quenching",four times more favorable
same,pKd,[2]; read-out: Kd1,3.80
same,pKd,[2]; read-out: Kd2,3.76
same,pKd,[3],3.67
same,pKd,[4]; [7],3.15
same,relative PNC binding,"[4]; D2 domain of PTP99A compared to the other PTP domains, fluorescence quenching",much more poorly
same,pKd,"[5]; 5.0 µM protein, 25 mM citrate buffer pH 6.5, 100 mM NaCl, 2 mM DTT, tryptophan fluorescence quenching 350 nm, single site model",3.63
same,relative PNC binding,"[5]; two PTP domains of DLAR (D1 and D2) compared, fluorescence quenching",comparable affinities
same,pKd,[6],4.02
